In US9023844B2, “Heterocyclylpyri (mi) dinylpyrazole as fungicidals” (Bayer Intellectual Property GmbH, priority 2011, dated 2015) one finds efficacy, LogP and chromatographic logP data, which are given here for 34 compounds.

Read-outs that look alike come from different tables or passages of the source.

The subject of data set [1] is Pyrenophora teres. Put plainly: Example D: Pyrenophora test (barley) / preventive. It is filed as in vivo.
The test system of data set [2] is Uromyces appendiculatus. Put plainly: Example B: Uromyces test (beans) / preventive. It is filed as in vivo. Conditions: in vivo.
The test system of data set [3] is Puccinia recondita. Put plainly: Example E: Puccinia test (wheat) / preventive. It is filed as in vivo. The conditions noted are these: in vivo.
Data set [4] in a line: Determination of log P values by HPLC on a reverse phase column (C18), EEC-Directive 79/831 Annex V.A8 (Methods A, B, C). Conditions: for chromatographic logP: reverse phase C18 HPLC column. In kind it is physicochemical. As to the method: (§1) Note on the determination of the log P values and mass detection: The stated log P values were determined in accordance with EEC-Directive 79/831 Annex V.A8 by HPLC (High Performance Liquid Chromatography) on a reverse phase column (C18). Agilent 1100 LC system; 50*4.6 Zorbax Eclipse Plus C18 1.8 micron; eluent A: acetonitrile (0.1% formic acid); eluent B: water (0.09% formic acid); linear gradient from 10% acetonitrile to 95% acetonitrile in 4.25 mins, then 95% acetonitrile for a further 1.25 mins; oven temperature 55° C.; flow rate: 2.0 mL/min. The mass detection was effected with an Agilend MSD system.
as §1, with “HP1100;” for “Agilent 1100 LC system;”, “(0.08%” for “(0.09%”, “5%” for “10%”, “1.70 min,” for “4.25 mins,”, “1.00 min;” for “1.25 mins;”, “the Micronass ZQ2000 mass detector from Waters.” for “an Agilend MSD system.”
Note on the determination of the log P values and mass detection: The stated log P values were determined in accordance with EEC-Directive 79/831 Annex V.A8 by UPLC (Ultra Performance Liquid Chromatography) on a reverse phase column (C18). HP1100; 50*2.1 Zorbax Eclipse Plus C18 1.8 micron; eluent A: acetonitrile (0.09% formic acid); eluent B: water (0.1% formic acid); linear gradient from 10% A to 95% A in 3.25 min; oven temperature 40° C.; flow rate: 0.8 mL/min. The mass detection was effected with the LCT Premier or SQD mass detector from Waters.

Data set [5] relates to Pyricularia oryzae. It is filed as in vivo.
Setting [6] is: Method B (HPLC, reverse phase C18).
The mark [7] stands for this setting: Method C (HPLC, reverse phase C18), read-out: LogP.
[8] abbreviates: pH 2.7, values in the synthesis examples, HPLC, reverse phase C18, read-out: log P (pH 2.7).
[9] abbreviates: Method C (HPLC, reverse phase C18).
Where [10] appears, read: pH 2.3, intermediates of formula [IV] and [XXXVII], HPLC, reverse phase C18, read-out: LogP (pH 2.3).
The mark [11] stands for this setting: pH 2.3, intermediates of formula [VI], HPLC, reverse phase C18, read-out: LogP (pH 2.3).

Broadly, the LogP is the decadic logarithm of the partition coefficient of the neutral form, usually between octanol and water. Read a low LogP as a more hydrophilic compound. As for `CCOC(=O)Nc1cc(-c2c(-c3ccc(F)cc3)nn3c2OCCC3)ccn1` [Example 23], the efficacy in data set [1] (in vivo) is on record as 95%; in data set [2], 94%; in data set [3] it was 95%; in data set [5] (in vivo), 94%. The LogP in data set [4] (setting [6]) was 1.66.
As for `O=C(CCc1ccccc1)Nc1cc(-c2c(-c3ccc(F)cc3F)nn3c2OCCC3)ccn1` [Example 44], the results for the efficacy in data set [2], in data set [3] and in data set [5] (in vivo) were 94%, 95% and 78%, respectively. The same compound came in with a LogP in data set [4] (setting [6]) of 2.23.
Turning to `O=C(CCc1ccccc1)Nc1cc(-c2c(-c3ccc(F)cc3)nn3c2OCCC3)ccn1` [Example 29], the efficacy in data set [1] (in vivo) is 70%; in data set [2], 94%; in data set [3], 95%; in data set [5] (in vivo), 94%. The same compound registered a LogP in data set [4] (setting [6]) of 2.2.
Consider `CC(C)=CCC(=O)Nc1cc(-c2c(-c3ccc(F)cc3F)nn3c2OCCC3)ccn1` [Example 48], for which the efficacy in data set [1] (in vivo) is 70%; in data set [2], 86%; in data set [3] it was 95%; in data set [5] (in vivo) it was 78%. In data set [4] (setting [6]), this compound came in with a LogP of 2.1.
Turning to `CC(=O)Nc1cc(-c2c(-c3ccc(F)cc3)nn3c2NCCC3)ccn1` [Example 59, N-{4-[2-(4-Fluorophenyl)-4,5,6,7-tetrahydropyrazolo[1,5-a]pyrimidin-3-yl]pyridin-2-yl}acetamide], the efficacy in data set [1] (500 ppm of active ingredient, barley, preventive spray, evaluated 7-9 days after inoculation) stood at 80%; in data set [5] (500 ppm of active ingredient, rice, preventive spray, evaluated 7 days after inoculation) it was 70%. In addition, the chromatographic logP in data set [4] (setting [7]) and in data set [4] (setting [8]) was 1.48 in each case.
Turning to `CC(C(=O)Nc1cc(-c2c(-c3ccc(F)cc3)nn3c2OCCC3)ccn1)c1ccc(F)cc1` (stereo not shown) [Example 32], the efficacy in data set [1] (in vivo) is reported as 90%; in data set [2] it was 92%; in data set [3], 100%; in data set [5] (in vivo) it was 94%. Besides, the LogP in data set [4] (setting [6]) came to 2.48.
On the same counts, the results for `CCOC(=O)Nc1cc(-c2c(-c3ccc(F)cc3F)nn3c2OCCC3)ccn1` [Example 38] are 95%, 89%, 90%, 94% and 1.72.
In the case of `CC(=O)Nc1cc(-c2c(-c3ccsc3)nn3c2OC[Si](C)(C)C3)ccn1` [Example 96], the efficacy in data set [1] (in vivo) is listed as 95%; in data set [5] (in vivo) it was 70%. For the same compound, the LogP in data set [4] (setting [9]) worked out at 1.62.
Turning to `CC(C)=CCC(=O)Nc1cc(-c2c(-c3ccc(F)cc3)nn3c2OCCC3)ccn1` [Example 33], the efficacy came to 90% in data set [1] (in vivo), 89% in data set [2], 100% in data set [3] and 94% in data set [5] (in vivo). In data set [4] (setting [6]), the LogP came out at 2.07.
In the case of `CC1(C)COc2c(-c3ccnc(NC(=O)C4CC4)c3)c(-c3ccc(F)cc3)nn2C1` [Example 108], in data set [4] (setting [9]), the LogP is listed as 2.08.
Turning to `C[C@H](O)C(=O)Nc1cc(-c2c(-c3ccc(F)cc3F)nn3c2OCCC3)ccn1` [Example 41], the efficacy in data set [1] (in vivo) was found to be 90%; in data set [2] it was 94%; in data set [3], 95%; in data set [5] (in vivo), 94%. The LogP in data set [4] (setting [6]) stood at 1.34.
Turning to `C[Si]1(C)COc2c(Br)c(-c3ccc(F)cc3)nn2C1` [[IV-5], 8-bromo-7-(4-fluorophenyl)-3,3-dimethyl-3,4-dihydro-2H-pyrazolo[5,1-b][1,3,5]oxazasiline], the chromatographic logP in data set [4] (setting [10]) and in data set [4] (setting [8]) was 3.83 in each case.
`CC1(C(=O)Nc2cc(-c3c(-c4ccc(F)cc4)nn4c3OCCC4)ccn2)COCOC1` [Example 118] had a LogP in data set [4] (setting [6]) of 1.86.
For the compound `CC(F)C(=O)Nc1cc(-c2c(-c3ccc(F)cc3)nn3c2OCCC3)ccn1` (stereo not shown) [Example 113, 2-fluoro-N-{4-[2-(4-fluorophenyl)-6,7-dihydro-5H-pyrazolo[5,1-b][1,3]oxazin-3-yl]pyridin-2-yl}propanamide], the chromatographic logP came out at 2 in data set [4] (Method B (HPLC, reverse phase C18), read-out: LogP) and 2 in data set [4] (setting [8]).
Consider `O=C(Nc1cc(-c2c(-c3ccc(F)cc3)nn3c2OCCC3)ccn1)c1c(F)cccc1F` [Example 71], for which the LogP in data set [4] (setting [6]) stood at 2.43.
The same measure, in the same setting: in the case of `CC(=O)CCCC(=O)Nc1cc(-c2c(-c3ccc(F)cc3)nn3c2OCCC3)ccn1` [Example 99] it was 1.35; in that of `O=C(Nc1cc(-c2c(-c3ccc(F)cc3)nn3c2OCCC3)ccn1)C1CC=CC1` [Example 125], 1.76.
`Cc1coc2c(Br)c(-c3ccc(F)cc3)nn12` [[IV-a-1], 7-bromo-6-(4-fluorophenyl)-3-methylpyrazolo[5,1-b][1,3]oxazole]: the chromatographic logP in data set [4] (setting [10]) and in data set [4] (setting [8]) was 3.56 throughout.
With `CC1(C#N)COc2c(Br)c(-c3ccc(F)cc3)nn2C1` (stereo not shown) [[IV-11], 3-bromo-2-(4-fluorophenyl)-6-methyl-6,7-dihydro-5H-pyrazolo[5,1-b][1,3]oxazine-6-carbonitrile], the chromatographic logP in data set [4] (setting [10]) and in data set [4] (setting [8]) was 2.94 in each case.
Turning to `CCc1coc2c(Br)c(-c3ccc(F)cc3)nn12` [[IV-a-2], 7-bromo-3-ethyl-6-(4-fluorophenyl)pyrazolo[5,1-b][1,3]oxazole], the chromatographic logP in data set [4] (setting [10]) and in data set [4] (setting [8]) was 4.18 in each case.
As for `CC1(C(=O)Nc2cc(-c3c(-c4ccc(F)cc4)nn4c3OCCC4)ccn2)CC=CCC1` (stereo not shown) [Example 121], in data set [4] (setting [6]), the LogP was 2.38.
For the compound `CC(C)=NOCC(=O)Nc1cc(-c2c(-c3ccc(F)cc3)nn3c2OCCC3)ccn1` [Example 122], in data set [4] (setting [6]), the LogP is listed as 2.13.
`CCCC(CCC)C(=O)Nc1cc(-c2c(-c3ccc(F)cc3)nn3c2OCCC3)ccn1` [Example 67] gave a LogP in data set [4] (setting [6]) of 2.64.
With `c1ccc(-c2cc3n(n2)CCCO3)cc1` [[VI-1], 2-phenyl-6,7-dihydro-5H-pyrazolo[5,1-b][1,3]oxazine], the chromatographic logP in data set [4] (setting [11]) and in data set [4] (setting [8]) was 2.04 throughout.
In the case of `O=C(CCc1ccccc1)Nc1cc(-c2c(-c3ccccc3)nn3c2OCCC3)ccn1` [Example 15], the efficacy in data set [1] (in vivo) amounted to 95%; in data set [2], 83%; in data set [3] it was 95%; in data set [5] (in vivo) it was 94%. Further, the LogP in data set [4] (setting [6]) is 2.04.
In the case of `CC(=O)Nc1cc(-c2c(-c3ccc(F)cc3)nn3cccnc23)ccn1` [Example 60, N-{4-[2-(4-Fluorophenyl)pyrazolo[1,5-a]pyrimidin-3-yl]pyridin-2-yl}acetamide], the chromatographic logP in data set [4] (setting [7]) and in data set [4] (setting [8]) was 1.47 throughout.
`C[Si]1(C)COc2c(-c3ccnc(NC(=O)C4CC4)c3)c(-c3cccs3)nn2C1` [Example 87] registered a LogP in data set [4] (setting [9]) of 2.08.
`CCC1(C(=O)Nc2cc(-c3c(-c4ccc(F)cc4)nn4c3OCCC4)ccn2)COC1` [Example 119] displayed a LogP in data set [4] (setting [6]) of 1.56.
Take `CC(C(=O)Nc1cc(-c2c(-c3ccc(F)cc3F)nn3c2OCCC3)ccn1)c1ccc(F)cc1` (stereo not shown) [Example 47]: the efficacy in data set [1] (in vivo) was determined as 80%; in data set [2] it was 92%; in data set [3] it was 95%; in data set [5] (in vivo) it was 89%. The same compound gave a LogP in data set [4] (setting [6]) of 2.48.
As to `CC(C)(C)OC(=O)Nc1cc(-c2c(-c3ccccc3)nn3cccnc23)ccn1` [[I-i-2], tert-butyl [4-(2-phenylpyrazolo[1,5-a]pyrimidin-3-yl)pyridin-2-yl]carbamate], the chromatographic logP in data set [4] (setting [8]) stood at 2.32.
Compound `CCC(=O)N(C)c1cc(-c2c(-c3ccc(F)cc3)nn3c2N(C(=O)CC)CCC3)ccn1` [Example 93] showed a LogP in data set [4] (setting [9]) of 2.05.
As for `C[Si]1(C)COc2cc(-c3ccc(F)cc3)nn2C1` [[VI-5], 7-(4-fluorophenyl)-3,3-dimethyl-3,4-dihydro-2H-pyrazolo[5,1-b][1,3,5]oxazasiline], the chromatographic logP in data set [4] (setting [11]) and in data set [4] (setting [8]) was 3.11 in each case.
For `Brc1c(-c2ccccc2)nn2ccoc12` [[IV-a-4], 7-bromo-6-phenylpyrazolo[5,1-b][1,3]oxazole], the chromatographic logP in data set [4] (setting [10]) and in data set [4] (setting [8]) was 2.91 in each case.
`Fc1ccc(-c2nn3cccnc3c2Br)cc1` [[XXXVII-2], 3-Bromo-2-(4-fluorophenyl)pyrazolo[1,5-a]pyrimidine]: the chromatographic logP in data set [4] (setting [10]) and in data set [4] (setting [8]) was 2.8 throughout.
